In PubChem BioAssay AID504542 (Sanford-Burnham Center for Chemical Genomics, 2011):
The source made the active and inactive calls. The rule behind the calls is not given here.

Each compound was assayed on S. cerevisiae TIM10 counterscreen strain, luminescence (assay: TIM10 counterscreen strain luminescent signal reducers – S. cerevisiae, uHTS hits, counter-screen for tim10-1 inhibitor project, dose response (AID 504542)).

Row | SMILES | IC50
1 | CC(=O)N1CCN(c2cc(N3CCc4ccccc4C3)c(F)cc2[N+](=O)[O-])CC1 | 19.6 µM
2 | CN(C)CCCN(C(=O)c1cc2cc([N+](=O)[O-])ccc2s1)c1nc2cc3c(cc2s1)OCCO3 | 10.8 µM
3 | CCOc1ccccc1NC(=O)/C=C/C(N)=O | 3.32 µM
4 | S=C(NCCCc1ccccc1)Nc1ccc(Cl)cc1 | 3.88 µM
5 | COc1ccc(NC2CCN(C3CC(=O)N(c4ccc(F)c(Cl)c4)C3=O)CC2)cc1 (stereo not given) | 2.91 µM
6 | N/C(=N\OC(=O)c1ccc(Cl)cc1)c1ccc(Cl)cc1 | > 100 µM (inactive)
7 | CCOC(=O)/C=C/C(=O)Nc1cccc([N+](=O)[O-])c1 | 1.9 µM
8 | Cc1ccc(/C(N)=N/OC(=O)C(C)c2ccc([N+](=O)[O-])cc2)cc1 (stereo not given) | 22 µM
9 | Cc1ccc(CNC(=O)c2ccc(Cn3nc(C)c(Cl)c3C)o2)cc1 | 10.1 µM
10 | N/C(Cc1ccc(Cl)cc1)=N\OC(=O)c1ccc2ccccc2c1 | 0.26 µM
11 | Cc1nonc1C1CCCN1C(=O)c1cc(COc2cccc(C(F)(F)F)c2)on1 (stereo not given) | 9.73 µM
12 | Cc1ccc(F)c([C@H]2[C@@H]3C=CCC[C@@]3(C)C(=O)N2Cc2ccccc2)c1 | 7.6 µM
13 | NNc1nc(-c2ccccc2)c2cc(Br)ccc2n1 | 15.9 µM
14 | O=c1c2ccccc2[se]n1-c1ccccc1 | 0.58 µM
15 | CC(C)C(c1nnnn1C1CCCC1)N1CCCc2ccccc21 (stereo not given) | 5.94 µM
16 | CC(C)CN(CC(C)C)C(=S)Nc1ccc(Cl)cc1 | 11 µM
17 | NC(=NCCCCCCN=C(N)/N=C(\N)Nc1ccc(Cl)cc1)/N=C(\N)Nc1ccc(Cl)cc1 | > 100 µM (inactive)
18 | Cc1cc(C)cc(N2C(=O)CC(Sc3nnnn3-c3ccccc3)C2=O)c1 (stereo not given) | 0.69 µM
19 | Fc1ccccc1CNC(=S)Nc1cccc(C(F)(F)F)c1 | 8.28 µM
20 | COc1ccc(C(=O)O/N=C(\N)Cc2ccc(Cl)c(Cl)c2)cc1OC | 0.8 µM
21 | Nc1ccccc1C(=O)/C=C/c1ccc2c(c1)OCO2 | 5.88 µM
22 | Cc1onc(-c2ccc3c(c2)OCO3)c1-c1ccc2[nH]ccc2c1 | 3.49 µM
23 | Cn1c(NCCCO)nc2c(c1=O)C1(CCCCC1)Cc1ccccc1-2 | 6.86 µM
24 | C=CC(=O)Oc1ccc(N2Cc3ccccc3C2=O)cc1 | 2.89 µM

Row | SMILES | IC50
25 | N=C(N)c1ccc(/C=C/c2ccc(C(=N)N)cc2O)cc1 | 4.36 µM
26 | Cc1cc(/C=C\c2ccc3cc(N(C)C)ccc3[n+]2C)c(C)n1-c1ccccc1 | 3.92 µM
27 | CCOC(=O)c1cc(-c2cccs2)nc2c1c(C)nn2-c1ccccn1 | 8.92 µM
28 | CC(C)c1nnc(NC(=O)CCS(=O)(=O)c2nc(-c3cccs3)cc(C(F)(F)F)n2)s1 | 4.84 µM
29 | Cc1ccc(NC2=C/C(=N\S(=O)(=O)c3cccs3)c3ccccc3C2=O)c(C)c1 | 3.94 µM
30 | Nc1nc(N)c(C=Nc2ccc(Br)cc2)c(Nc2ccc(Br)cc2)n1 | 10.8 µM
31 | COc1ccc(Cl)cc1NC(=O)CN(C)C(=O)C12CC3CC(CC(Cl)(C3)C1)C2 | 12 µM
32 | CCCCCCCCCCOC(=O)Cn1c(COc2ccccc2OC)[n+](C)c2ccccc21 | 8.06 µM
33 | Fc1c(F)c(C(F)(F)F)c(F)c(F)c1N/N=C\c1cccs1 | 4 µM
34 | Cc1ccc(S(=O)(=O)c2nc(S(C)(=O)=O)sc2N2CCCCC2C)cc1 (stereo not given) | 2.35 µM
35 | COc1ccc(C(=O)Nc2ccc(-n3nncc3C(C)(C)C)cc2)cc1 | 6.59 µM
36 | Cc1ccc(OCC(=O)O/N=C(\N)Cc2ccc(Cl)cc2)cc1 | 56.7 µM
37 | O=C(N/N=C/c1ccc[nH]1)c1cc(-c2ccc(Cl)cc2)nc2ccccc12 | 4.98 µM
38 | CCSc1nc2ccccc2n1C(=O)/C=C\c1ccc(OC)c(OC)c1 | 7.72 µM
39 | COc1ccc(/C(N)=N/OC(=O)c2ccc3c(c2)OCO3)cc1 | 4.94 µM
40 | O=C(OCn1ncc(Br)c(Br)c1=O)c1ccccc1Cl | 1.41 µM
41 | O=C(c1ccc2c3n(nc2c1)-c1ccccc1CO3)N1CCCCC1 | 8.99 µM
42 | N/C(=N\OC(=O)c1ccc(F)cc1)c1ccc(Br)cc1 | > 100 µM (inactive)
43 | CCOC(=O)c1c(CSc2ccc(C)cc2)n(C)c2cc(Br)c(O)c(CN(C)C)c12 | 12.8 µM
44 | Cc1ccccc1/C=C/C(=O)c1ccc([N+](=O)[O-])o1 | 0.66 µM
45 | O=S(=O)(CCN(CCS(=O)(=O)C(F)(F)F)CC1CCCO1)C(F)(F)F (stereo not given) | 5.4 µM
46 | Clc1ccccc1OCc1nnc(-c2ccccc2Br)o1 | 16.6 µM
47 | COc1ccc(-c2nncnn2)cc1 | 3.43 µM
48 | CC(C)Nc1nnc(Sc2ccc(Cl)cc2[N+](=O)[O-])s1 | 2.28 µM

Row | SMILES | IC50
49 | N/C(=N\OC(=O)CCC1CCCC1)c1ccccc1 | 16.8 µM
50 | COc1ccc(C(=O)O/N=C(\N)c2ccc(Cl)cc2)cc1 | 4.07 µM
51 | N/C(=N\OC(=O)CCCc1ccccc1)c1ccccc1Cl | 7.22 µM
52 | O=C1CS(=O)(=O)N(Cc2cccc(F)c2)c2ccc(Br)cc21 | 4.69 µM
53 | COc1ccc(Cl)cc1NC(=S)NCCc1ccc(F)cc1 | 11.3 µM
54 | CCOc1ccccc1N1C(=O)CC(Sc2n[nH]c(-c3ccccc3)n2)C1=O (stereo not given) | 2.27 µM
55 | COc1ccc(C(=O)O/N=C(\N)c2ccccc2Cl)cc1OC | 9.27 µM
56 | O=[N+]([O-])c1ccccc1N/N=C/c1c[nH]c2ccccc12 | 5.11 µM
57 | Cn1c(Cl)cnc1C1CC(=O)c2cc(Cl)ccc2O1 (stereo not given) | 1.98 µM
58 | CCCCNC(=S)N=Nc1c(O)[nH]c2ccccc12 | 3.19 µM
59 | CCOC(=O)c1c(OCC)[nH]c2c1cc(O)c1ccccc12 | 8.27 µM
60 | CCCCNC(=S)Nc1ccc(C(F)(F)F)cc1 | 9.88 µM
61 | O=C(NC(=S)NNC(=O)c1ccccc1[N+](=O)[O-])c1ccc(Br)cc1 | 6.64 µM
62 | CC(C)(C)OC(=O)N[C@@H](Cc1ccccc1)c1nnc(S(=O)(=O)Cc2cccc(F)c2)o1 | 1.19 µM
63 | O=C(/C=C/c1ccc2c(c1)OCCCO2)c1ccccc1O | 4.68 µM
64 | N/C(=N\OC(=O)CCC1CCCC1)c1cccc([N+](=O)[O-])c1 | 8.32 µM
65 | Clc1ccc(CNc2nc(CN3CCOCC3)nc3scc(-c4ccccc4)c23)cc1 | 4.96 µM
66 | CC(C)(C)c1ccc(CN2N=Nc3ccccc3S2(=O)=O)cc1 | 2.99 µM
67 | COc1ccc(Br)cc1[C@H]1[C@@H]2C=CCC[C@@]2(C)C(=O)N1Cc1ccccc1 | 6.12 µM
68 | CCN(CC)C1CC(=O)N(c2cccc(Cl)c2)C1=O (stereo not given) | 1.74 µM
69 | COc1cc(OC)c(C(=O)O/N=C(\N)c2ccc(C)cc2)cc1OC | 5.99 µM
70 | COc1ccc(-c2[nH]ncc2N=Nc2ccccc2)cc1 | 5.88 µM
71 | COc1cc(C(=O)Nc2ccc(Cl)c(C(F)(F)F)c2)cc(OC)c1OC | 27.1 µM
72 | COc1ccc(Br)cc1[C@H]1[C@H]2C=CC[C@@H](C)[C@@H]2C(=O)N1Cc1ccccc1 | 6.86 µM

Row | SMILES | IC50
73 | COc1ccc2sc(N(CCCN(C)C)C(=O)c3ccc(S(=O)(=O)N4CCCc5ccccc54)cc3)nc2c1 | 8.76 µM
74 | COc1ccc(C(=O)O/N=C(\N)c2ccc(Br)cc2)cc1 | 7.29 µM
75 | O=C(OCn1ncc(Br)c(Br)c1=O)c1ccc(F)cc1 | 1.15 µM
76 | Cc1ccc(F)c([C@H]2C3C=CCC(c4ccccc4)C3C(=O)N2Cc2ccccc2)c1 (stereo not given in full) | 6.99 µM
77 | COc1ccc(-n2cc(-c3ccccc3)c3c(=S)nc[nH]c32)cc1 | > 100 µM (inactive)
78 | COc1ccc(/C=C/C(=O)c2ccccc2)cc1Cn1nnc2ccccc21 | 3.86 µM
79 | Cc1cccc(NC(=S)N/N=C2/CCCCc3ccccc32)c1 | 2.28 µM
80 | COC(=O)C(C(C)=O)C1=C/C(=N\S(=O)(=O)c2ccc(C)cc2)c2ccccc2C1=O (stereo not given) | 3.81 µM
81 | C/C(=N\NC(=S)NCc1ccccc1)c1ccc(Cl)s1 | 11.6 µM
82 | CC1=C/C(=N\OS(=O)(=O)c2ccccc2)C=CC1=O | 0.26 µM
83 | Cc1cc([N+](=O)[O-])ccc1-c1ccc(C2Nc3ccccc3C(=O)N2O)o1 (stereo not given) | 9.76 µM
84 | COc1ccccc1N1C(=O)CC(Sc2n[nH]c(-c3cccc(C)c3)n2)C1=O (stereo not given) | 3.62 µM
85 | O=C(Nc1cccnc1)c1cn(-c2ccccc2)nc1-c1cccs1 | 8.73 µM
86 | O=C(NNC(=S)Nc1cccc(C(F)(F)F)c1)c1cccc(Cl)c1 | 9.48 µM
87 | O=C(c1cc(COc2ccc(F)cc2Cl)on1)N1CCN(c2cnccn2)CC1 | 3.98 µM
88 | CC(C)C(=O)N1CCN(c2ccccc2NC(=O)c2ccc([N+](=O)[O-])o2)CC1 | 1.82 µM
89 | COc1ccc(-c2sc3cc4c(cc3c2C#CC2(N)CCCCC2)OCO4)cc1 | 8.21 µM
90 | CCCn1c(CC)nc([N+](=O)[O-])c1S(=O)(=O)c1ccccc1 | 2.72 µM
91 | COC(=O)c1c(N2C(=O)CC(Sc3ccccc3C(=O)O)C2=O)sc2c1CCCC2 (stereo not given) | 1.49 µM
92 | Cc1ccc(NC(=S)Nc2ccc(Cl)c(Cl)c2)c(OC(F)F)c1 | 9.07 µM
93 | O=C(NC(=S)Nc1ccccc1N1CCCC1)c1ccc([N+](=O)[O-])cc1 | 8.53 µM
94 | Cc1ccc(NC(=O)c2ccc(Cl)c(N3C(=O)C=CC3=O)c2)cc1 | 4.36 µM
95 | CN(CCCC(=O)O)c1ccc(N=Nc2ccc([N+](=O)[O-])cc2)cc1 | 14.5 µM
